Target: T1, CFTR (Homo sapiens, UniProt P13569, DEL508-508)
T1 construct: Primary CF airway epithelial cells were obtained from the UNC Cystic Fibrosis Tissue Procurement and Cell Culture Core; host or cells: primary CF airway epithelial cells
Test: Equivalent current assay in Primary CF airway epithelial cells (NAUC)
Type: cell-based
Settings: 24 h, normalized to VX809 (3 μM) positive control; for Nauc @ 3 μM: 3 μM test compound; for Nauc @ 10 μM: 10 μM test compound
How it was run: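 NAUC is the area under the curve from forskolin (10 μM) plus VX770 (1 μM) addition to CFTR-172 (20 μM) block, after benzamil (5 μM). It is corrected for vehicle and scaled to 3 μM VX809 as 1.0 and DMSO as 0.0. Cells were exposed for 24 h to compounds with VX809; medians of ≥4 replicates were fitted sigmoidally.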

T1 sequence (P13569 with tags, fused parts or gaps DEL508-508): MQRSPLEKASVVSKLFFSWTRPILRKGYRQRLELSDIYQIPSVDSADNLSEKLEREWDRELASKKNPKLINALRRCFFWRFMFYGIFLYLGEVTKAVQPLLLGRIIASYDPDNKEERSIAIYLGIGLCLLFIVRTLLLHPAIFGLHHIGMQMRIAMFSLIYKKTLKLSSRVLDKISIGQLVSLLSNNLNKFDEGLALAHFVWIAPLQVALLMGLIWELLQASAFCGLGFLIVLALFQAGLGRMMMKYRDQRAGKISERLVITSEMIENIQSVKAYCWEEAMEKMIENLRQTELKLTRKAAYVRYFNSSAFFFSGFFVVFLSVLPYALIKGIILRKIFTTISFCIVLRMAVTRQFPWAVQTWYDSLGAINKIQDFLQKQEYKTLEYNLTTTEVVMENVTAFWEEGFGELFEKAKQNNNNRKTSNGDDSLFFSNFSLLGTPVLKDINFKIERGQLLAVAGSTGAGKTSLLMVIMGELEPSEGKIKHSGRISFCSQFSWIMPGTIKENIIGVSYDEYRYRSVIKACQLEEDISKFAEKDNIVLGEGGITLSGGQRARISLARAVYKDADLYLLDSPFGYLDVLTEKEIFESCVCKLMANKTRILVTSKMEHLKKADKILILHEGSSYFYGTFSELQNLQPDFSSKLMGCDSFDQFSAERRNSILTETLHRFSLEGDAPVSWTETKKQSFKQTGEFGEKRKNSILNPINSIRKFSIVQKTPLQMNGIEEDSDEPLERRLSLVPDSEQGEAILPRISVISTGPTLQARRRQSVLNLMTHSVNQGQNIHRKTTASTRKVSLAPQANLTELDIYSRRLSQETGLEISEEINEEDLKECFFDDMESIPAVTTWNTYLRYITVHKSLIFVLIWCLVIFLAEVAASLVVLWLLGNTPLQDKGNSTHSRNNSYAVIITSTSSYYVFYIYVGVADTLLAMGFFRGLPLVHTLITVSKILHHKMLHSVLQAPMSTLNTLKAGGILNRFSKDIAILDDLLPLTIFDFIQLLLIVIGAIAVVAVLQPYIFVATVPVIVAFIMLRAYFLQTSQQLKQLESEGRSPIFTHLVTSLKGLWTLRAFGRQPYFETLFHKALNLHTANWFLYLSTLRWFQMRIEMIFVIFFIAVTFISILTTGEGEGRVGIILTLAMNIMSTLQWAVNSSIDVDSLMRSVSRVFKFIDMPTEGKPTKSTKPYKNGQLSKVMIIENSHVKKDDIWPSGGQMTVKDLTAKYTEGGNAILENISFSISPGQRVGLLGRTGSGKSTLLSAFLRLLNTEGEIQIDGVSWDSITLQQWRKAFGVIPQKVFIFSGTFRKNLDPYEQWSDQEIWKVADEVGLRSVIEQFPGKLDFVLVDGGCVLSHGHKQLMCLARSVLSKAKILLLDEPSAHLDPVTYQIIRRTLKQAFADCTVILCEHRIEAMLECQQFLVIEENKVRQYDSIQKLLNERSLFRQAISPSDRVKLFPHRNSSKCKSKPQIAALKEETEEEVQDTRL

Row | SMILES | Nauc @ 3 μM | Nauc @ 10 μM
1 | [2H]C12C(=O)N(c3cc(Cl)cc(Cl)c3)C(=O)C1([2H])C1(C(=O)Nc3c(Cl)cc(Cl)cc31)N1C[C@@H](O)CC12 (single isomer, unassigned) [Example 84] | ++ (NAUC “++” refers to an observed NAUC 170-140% of positive control) | ++ (NAUC “++” refers to an observed NAUC 170-140% of positive control)
2 | COc1c(Cl)cc(N2C(=O)C3C4CCCN4C4(C(=O)Nc5c(Cl)cc(Cl)cc54)C3C2=O)cc1Cl (stereo not shown) [Example 77] | +++ (NAUC “+++” refers to an observed NAUC >170% of positive control) | +++ (NAUC “+++” refers to an observed NAUC >170% of positive control)
3 | COc1cccc(N2C(=O)C3C4C[C@H](Cl)CN4C4(C(=O)Nc5c(Cl)cc(Cl)cc54)C3C2=O)c1 (stereo partly shown) [Example 113] | + (NAUC “+” refers to an observed NAUC <140% of positive control) | ++ (NAUC “++” refers to an observed NAUC 170-140% of positive control)
4 | O=C1C2C3C[C@H](Cl)CN3C3(C(=O)Nc4c(Cl)cc(Cl)cc43)C2C(=O)N1c1cc(Cl)cc(Cl)c1 (single isomer, unassigned) [Example 87] | +++ (NAUC “+++” refers to an observed NAUC >170% of positive control) | +++ (NAUC “+++” refers to an observed NAUC >170% of positive control)
5 | O=C1C2C3CCCN3C3(C(=O)Nc4c(Cl)cc(Cl)cc43)C2C(=O)N1c1cccc(C(F)(F)F)c1 (stereo not shown) [Example 15] | ++ (NAUC “++” refers to an observed NAUC 170-140% of positive control) | +++ (NAUC “+++” refers to an observed NAUC >170% of positive control)
6 | N=C(N)NCCCC1NC2(C(=O)Nc3c(Cl)cc(Cl)cc32)C2C(=O)N(c3cc(Cl)cc(Cl)c3)C(=O)C12 (stereo not shown) [Example 163] | ++ (NAUC “++” refers to an observed NAUC 170-140% of positive control) | + (NAUC “+” refers to an observed NAUC <140% of positive control)
7 | O=C1C2C3C[C@H](O)CN3C3(C(=O)Nc4c(Cl)cc(Cl)cc43)C2C(=O)N1c1cc(Br)cc(Br)c1 (stereo partly shown) [Example 45] | + (NAUC “+” refers to an observed NAUC <140% of positive control) | +++ (NAUC “+++” refers to an observed NAUC >170% of positive control)
8 | O=C1C2C3C[C@H](O)CN3C3(C(=O)Nc4ccc(C(F)(F)F)cc43)C2C(=O)N1c1cc(Cl)cc(Cl)c1 (single isomer, unassigned) [Example 61] | +++ (NAUC “+++” refers to an observed NAUC >170% of positive control) | +++ (NAUC “+++” refers to an observed NAUC >170% of positive control)
9 | C[C@]1(O)CC2C3C(=O)N(c4cc(Cl)cc(Cl)n4)C(=O)C3C3(C(=O)Nc4c(Cl)cc(Cl)cc43)N2C1 (stereo partly shown) [Example 172] | ++ (NAUC “++” refers to an observed NAUC 170-140% of positive control) | +++ (NAUC “+++” refers to an observed NAUC >170% of positive control)
10 | CC(=O)Oc1c(Cl)cc(Cl)cc1N1C(=O)C2C3C[C@H](Cl)CN3C3(C(=O)Nc4c(Cl)cc(Cl)cc43)C2C1=O (stereo partly shown) [Example 93] | ++ (NAUC “++” refers to an observed NAUC 170-140% of positive control) | +++ (NAUC “+++” refers to an observed NAUC >170% of positive control)
11 | C[C@]1(O)CC2C3C(=O)N(c4cc(Cl)c(OC(F)F)c(Cl)c4)C(=O)C3C3(C(=O)Nc4c(Cl)cc(Cl)cc43)N2C1 (stereo partly shown) [Example 226] | ++ (NAUC “++” refers to an observed NAUC 170-140% of positive control) | ++ (NAUC “++” refers to an observed NAUC 170-140% of positive control)
12 | O=C1C2CN(c3ccccc3)C3(C(=O)Nc4c(Cl)cc(Cl)cc43)C2C(=O)N1c1cc(Cl)cc(Cl)c1 (stereo not shown) [Example 209] | + (NAUC “+” refers to an observed NAUC <140% of positive control) | +++ (NAUC “+++” refers to an observed NAUC >170% of positive control)
13 | [2H]C12C(=O)N(c3cc(Cl)c(OC)c(Cl)c3)C(=O)C1([2H])C1(C(=O)Nc3c(Cl)cc(Cl)cc31)N1CC(C)(C)CC12 (stereo not shown) [Example 149] | +++ (NAUC “+++” refers to an observed NAUC >170% of positive control) | +++ (NAUC “+++” refers to an observed NAUC >170% of positive control)
14 | [2H]C12C(=O)N(c3cc(Cl)cc(Cl)c3)C(=O)C1([2H])C1(C(=O)Nc3c(Cl)cc(Cl)cc31)N1CC(C)(C)CC12 (stereo not shown) [Example 147] | +++ (NAUC “+++” refers to an observed NAUC >170% of positive control) | +++ (NAUC “+++” refers to an observed NAUC >170% of positive control)
15 | C[C@]1(F)CC2C3C(=O)N(c4cc(Cl)cc(Cl)c4)C(=O)C3C3(C(=O)Nc4c(Cl)cc(Cl)cc43)N2C1 (single isomer, unassigned) [Example 249] | ++ (NAUC “++” refers to an observed NAUC 170-140% of positive control) | + (NAUC “+” refers to an observed NAUC <140% of positive control)
16 | COc1cc(Cl)cc(N2C(=O)C3C4CC(=C(F)F)CN4C4(C(=O)Nc5c(Cl)cc(Cl)cc54)C3C2=O)c1 (stereo not shown) [Example 117] | +++ (NAUC “+++” refers to an observed NAUC >170% of positive control) | +++ (NAUC “+++” refers to an observed NAUC >170% of positive control)
17 | COc1cc(Cl)cc(N2C(=O)C3C4C[C@](C)(F)CN4C4(C(=O)Nc5c(Cl)cc(Cl)cc54)C3C2=O)c1 (stereo partly shown) [Example 160] | + (NAUC “+” refers to an observed NAUC <140% of positive control) | ++ (NAUC “++” refers to an observed NAUC 170-140% of positive control)
18 | O=C1C2C3C[C@H](F)CN3C3(C(=O)Nc4c(Cl)cc(Cl)cc43)C2C(=O)N1c1cc(Cl)cc(Cl)c1 (stereo partly shown) [Example 49] | ++ (NAUC “++” refers to an observed NAUC 170-140% of positive control) | +++ (NAUC “+++” refers to an observed NAUC >170% of positive control)
19 | COc1cc(Cl)cc(N2C(=O)C3C4C[C@](C)(O)CN4C4(C(=O)Nc5c(Cl)cc(Cl)cc54)C3C2=O)c1 (single isomer, unassigned) [Example 256] | ++ (NAUC “++” refers to an observed NAUC 170-140% of positive control) | +++ (NAUC “+++” refers to an observed NAUC >170% of positive control)
20 | COc1cc(Cl)cc(N2C(=O)C3C4C[C@H](Cl)CN4C4(C(=O)Nc5c(Cl)cc(Cl)cc54)C3C2=O)c1 (single isomer, unassigned) [Example 107] | +++ (NAUC “+++” refers to an observed NAUC >170% of positive control) | +++ (NAUC “+++” refers to an observed NAUC >170% of positive control)
21 | CC(=O)Oc1c(Cl)cc(Cl)cc1N1C(=O)C2C3C[C@H](F)CN3C3(C(=O)Nc4c(Cl)cc(Cl)cc43)C2C1=O (stereo partly shown) [Example 92] | +++ (NAUC “+++” refers to an observed NAUC >170% of positive control) | + (NAUC “+” refers to an observed NAUC <140% of positive control)
22 | O=C1C2C3C[C@H](Cl)CN3C3(C(=O)Nc4c(Cl)cc(Cl)cc43)C2C(=O)N1c1cc(Cl)cc(Cl)n1 (single isomer, unassigned) [Example 108] | +++ (NAUC “+++” refers to an observed NAUC >170% of positive control) | ++ (NAUC “++” refers to an observed NAUC 170-140% of positive control)
23 | CC(O)C1NC2(C(=O)Nc3c(Cl)cc(Cl)cc32)C2C(=O)N(c3cc(Cl)cc(Cl)c3)C(=O)C12 (stereo not shown) [Example 166] | ++ (NAUC “++” refers to an observed NAUC 170-140% of positive control) | ++ (NAUC “++” refers to an observed NAUC 170-140% of positive control)
24 | COc1c(Cl)cc(N2C(=O)C3C4C[C@H](F)CN4C4(C(=O)Nc5c(Cl)cc(Cl)cc54)C3C2=O)cc1Cl (stereo partly shown) [Example 78] | +++ (NAUC “+++” refers to an observed NAUC >170% of positive control) | +++ (NAUC “+++” refers to an observed NAUC >170% of positive control)
25 | COc1cc(Cl)cc(N2C(=O)C3C4CC(C(F)F)CN4C4(C(=O)Nc5c(Cl)cc(Cl)cc54)C3C2=O)c1 (stereo not shown) [Example 130] | + (NAUC “+” refers to an observed NAUC <140% of positive control) | ++ (NAUC “++” refers to an observed NAUC 170-140% of positive control)
26 | C[C@@]1(F)CC2C3C(=O)N(c4cc(Cl)cc(Cl)n4)C(=O)C3C3(C(=O)Nc4c(Cl)cc(Cl)cc43)N2C1 (single isomer, unassigned) [Example 230] | +++ (NAUC “+++” refers to an observed NAUC >170% of positive control) | +++ (NAUC “+++” refers to an observed NAUC >170% of positive control)
27 | O=C1C2C3CCCN3C3(C(=O)Nc4c(Cl)cc(Cl)cc43)C2C(=O)N1c1cc(Cl)c(OC(F)F)c(Cl)c1 (single isomer, unassigned) [Example 250] | +++ (NAUC “+++” refers to an observed NAUC >170% of positive control) | +++ (NAUC “+++” refers to an observed NAUC >170% of positive control)
28 | O=C1C2C3CCCN3C3(C(=O)Nc4c(Cl)cc(Cl)cc43)C2C(=O)N1c1ncc(Cl)s1 (stereo not shown) [Example 229] | + (NAUC “+” refers to an observed NAUC <140% of positive control) | ++ (NAUC “++” refers to an observed NAUC 170-140% of positive control)
29 | COc1c(Cl)cc(N2C(=O)C3C4CC(OC)(OC)CN4C4(C(=O)Nc5c(Cl)cc(Cl)cc54)C3C2=O)cc1Cl (stereo not shown) [Example 168] | + (NAUC “+” refers to an observed NAUC <140% of positive control) | ++ (NAUC “++” refers to an observed NAUC 170-140% of positive control)

Reference: patent publication US10072017B2, “Compounds and methods for the treatment of cystic fibrosis” (Flatley Discovery Lab, LLC, priority 2015, dated 2018)
